Inconclusive results and toxic doses are left out. Rule as the data show it: active = T/C of 150% or more; inactive = T/C below 125%. Peptide text beside a SMILES is read from it. * marks the point of attachment. Cbz = O=C(OCc1ccccc1)*; OtBu = CC(C)(C)O*
Tested on: L1210 leukemia ip in BDF1 mice, survival T/C
Assay: NCI In Vivo Anticancer Drug Screen. Data for tumor model L1210 Leukemia (intraperitoneal) in B6D2F1 (BDF1) mice
Conditions: endpoint: mean survival time, higher = longer survival
How it was run: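 Ratio derived from survival: compound-dosed mice over vehicle-dosed mice, all bearing a transplantable tumor.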

[1] = dose: 100.0 mg/kg/injection, schedule: Q01DX001 (ip), vehicle: Klucel (hydroxypropylcellulose) (HPC)
[2] = dose: 200.0 mg/kg/injection, schedule: Q01DX001 (ip), vehicle: Klucel (hydroxypropylcellulose) (HPC)
[3] = dose: 100.0 mg/kg/injection, schedule: Q04DX003 (ip), vehicle: Klucel (hydroxypropylcellulose) (HPC)
[4] = dose: 200.0 mg/kg/injection, schedule: Q04DX003 (ip), vehicle: Klucel (hydroxypropylcellulose) (HPC)
[5] = dose: 400.0 mg/kg/injection, schedule: Q04DX003 (ip), vehicle: Klucel (hydroxypropylcellulose) (HPC)

Measured: T/C

COc1ccc(OC)c2[nH]c(=O)c(CCC(=O)O)nc12
inactive: dose: 100.0 mg/kg/injection, schedule: Q04DX003 (ip), vehicle: other 96 % of control | dose: 200.0 mg/kg/injection, schedule: Q04DX003 (ip), vehicle: other 96 % of control

O=C(O)/C=C(/C(=O)O)c1cccn1Cc1ccccc1
inactive: dose: 25.0 mg/kg/injection, schedule: Q01DX009 (ip), vehicle: saline with Tween-80 110 % of control | dose: 50.0 mg/kg/injection, schedule: Q01DX009 (ip), vehicle: saline with Tween-80 100 % of control | dose: 100.0 mg/kg/injection, schedule: Q01DX009 (ip), vehicle: saline with Tween-80 102 % of control

Nc1ccc(Cc2cc(=O)[nH]c(=O)[nH]2)cc1[N+](=O)[O-]
inactive: dose: 25.0 mg/kg/injection, schedule: Q01DX001 (ip), vehicle: Klucel (hydroxypropylcellulose) (HPC) 98 % of control | dose: 50.0 mg/kg/injection, schedule: Q01DX001 (ip), vehicle: Klucel (hydroxypropylcellulose) (HPC) 107 % of control | [1] 88 % of control | [2] 88 % of control

Cc1cccc(NC(=O)Nc2ccccc2)n1
inactive: dose: 100.0 mg/kg/injection, schedule: Q04DX002 (ip), vehicle: Klucel (hydroxypropylcellulose) (HPC) 98 % of control | dose: 200.0 mg/kg/injection, schedule: Q04DX002 (ip), vehicle: Klucel (hydroxypropylcellulose) (HPC) 103 % of control | dose: 400.0 mg/kg/injection, schedule: Q04DX002 (ip), vehicle: Klucel (hydroxypropylcellulose) (HPC) 103 % of control

CCOC(=O)CCN(C)C
inactive: dose: 100.0 mg/kg/injection, schedule: Q01DX009 (ip), vehicle: saline 104 % of control | dose: 200.0 mg/kg/injection, schedule: Q01DX009 (ip), vehicle: saline 101 % of control | dose: 400.0 mg/kg/injection, schedule: Q01DX009 (ip), vehicle: saline 98 % of control

Cc1ccc(C(C)(C#N)Nc2ccccc2)cc1 (configuration not stated)
inactive: [1] 88 % of control | [3] 105 % of control | [2] 91 % of control | [4] 95 % of control | dose: 400.0 mg/kg/injection, schedule: Q01DX001 (ip), vehicle: Klucel (hydroxypropylcellulose) (HPC) 92 % of control | [5] 105 % of control

OC(c1ccc(OCc2ccccc2)cc1)c1nccc2ccccc12 (configuration not stated)
inactive: dose: 100.0 mg/kg/injection, schedule: Q01DX001 (ip), vehicle: acetone 88 % of control

c1ccc(N/N=C2/CCN3CCCc4cccc2c43)cc1
inactive: dose: 3.0 mg/kg/injection, schedule: Q01DX009 (ip), vehicle: DMSO 98 % of control | dose: 6.0 mg/kg/injection, schedule: Q01DX009 (ip), vehicle: DMSO 96 % of control | dose: 12.0 mg/kg/injection, schedule: Q01DX009 (ip), vehicle: DMSO 95 % of control | dose: 12.5 mg/kg/injection, schedule: Q04DX003 (ip), vehicle: DMSO 101 % of control | dose: 25.0 mg/kg/injection, schedule: Q01DX009 (ip), vehicle: DMSO 89 % of control | dose: 25.0 mg/kg/injection, schedule: Q04DX003 (ip), vehicle: DMSO 100 % of control | dose: 50.0 mg/kg/injection, schedule: Q04DX003 (ip), vehicle: DMSO 104 % of control | dose: 100.0 mg/kg/injection, schedule: Q04DX003 (ip), vehicle: gum acacia 95 % of control

COC(=O)C(CCC(=O)OC(C)(C)C)NC(=O)C(CCC(=O)OC(C)(C)C)NC(=O)OCc1ccccc1 (configuration not stated) (Cbz-Glu(OtBu)-Glu(OtBu)-OMe; configuration not given here)
inactive: [3] 100 % of control | [4] 99 % of control | [5] 103 % of control

CCCCN(CCCC)CC(O)c1cc(-c2ccccc2)nc2c(N)cccc12 (configuration not stated)
inactive: dose: 75.0 mg/kg/injection, schedule: Q01DX001 (ip), vehicle: saline 98 % of control | dose: 150.0 mg/kg/injection, schedule: Q01DX001 (ip), vehicle: saline 100 % of control | dose: 300.0 mg/kg/injection, schedule: Q01DX001 (ip), vehicle: saline 96 % of control

CCOC(=O)C(C)Oc1ccc([N+](=O)[O-])cc1[N+](=O)[O-] (configuration not stated)
inactive: [3] 95 % of control | [4] 90 % of control | [5] 98 % of control

O=C1OCC(O)=C1Cc1ccccc1
inactive: dose: 100.0 mg/kg/injection, schedule: Q01DX001 (ip), vehicle: saline 101 % of control | dose: 200.0 mg/kg/injection, schedule: Q01DX001 (ip), vehicle: saline 89 % of control | dose: 400.0 mg/kg/injection, schedule: Q01DX001 (ip), vehicle: saline 94 % of control

O=C(O)CCCCCn1nnc2c(=O)[nH]cnc21
inactive: dose: 100.0 mg/kg/injection, schedule: Q04DX003 (ip), vehicle: saline 106 % of control | dose: 200.0 mg/kg/injection, schedule: Q04DX003 (ip), vehicle: saline 106 % of control | dose: 400.0 mg/kg/injection, schedule: Q04DX003 (ip), vehicle: saline 101 % of control

CCN(CC)CCN1C(=O)c2ccc3c4c(ccc(c24)C1=O)C(=O)N(CCN(CC)CC)C3=O
inactive: dose: 6.25 mg/kg/injection, schedule: Q01DX001 (ip), vehicle: saline 105 % of control | dose: 12.5 mg/kg/injection, schedule: Q01DX001 (ip), vehicle: saline 98 % of control

Source: PubChem BioAssay AID248 (DTP/NCI, 2004)
